In this assay the target is canine TRPM8 (Canis lupus familiaris, UniProt Q1A7N1). The assay can be described thus: In vitro canine TRPM8 functional assay (Ca2+-sensitive fluorescent dye, icilin activation). Format: cell-based. To be noted: HEK293 cells stably expressing canine TRPM8, icilin-induced Ca2+ response; for inhibition at 0.2 µM / % Inh @ 0.2 μM: 0.2 μM compound; for IC50: eight-point concentration-response. On the procedure:
The functional activity of representative compounds of the formula (I) of the present invention was quantified by measuring changes in intracellular calcium concentration using a Ca^2+-sensitive fluorescent dye. The changes in fluorescent signal were monitored by a fluorescence plate reader, either a FLIPR™ (Molecular Devices) or FDSS (Hamamatsu).
HEK293 cells stably expressing canine TRPM8 were routinely grown as monolayers in Dulbecco's minimum essential medium supplemented with 10% FBS, 2 mM L-glutamine, 100 units/mL penicillin, 100 ug/mL streptomycin and 400 μg/mL G418. Cells were maintained in 5% CO2 at 37° C. At 24 hr prior to assay, cells were seeded in black wall, clear-base poly-D-lysine coated 384-well plates (BD Biosciences, NJ, USA) at a density of 5,000 cells per well in culture medium and grown overnight in 5% CO2 at 37° C. On assay day, growth media was removed, and cells were loaded with Calcium 3 Dye (Molecular Devices) for 35 min at 37° C., under 5% CO2 and then incubated for 25 min at room temperature and atmosphere. Subsequently, cells were tested for agonist-induced increases in intracellular Ca^2+ levels using FLIPR™ or FDSS. Cells were treated with compounds of the formula (I) at varying concentrations and intracellular Ca^2+ was measured for 5 min prior to the addition of icilin to each well to achieve a final concentration that produces an approximately 80% maximal response.
Maximal fluorescence intensity (FI) achieved upon addition of icilin was exported from the FLIPR™ or FDSS software and further analyzed using GraphPad Prism 3.02 (Graph Pad Software Inc., CA, U.S.A.). Basal FI was subtracted prior to normalizing data to percent of maximal response. Curves were generated using the average of quadruplicate wells for each data point using nonlinear regression of either sigmoidal dose response or sigmoidal dose response (variable slope). Finally, the EC50 and IC50 values were calculated with the best-fit curve determined by GraphPad Prism

Where a name gives a salt, the structure may show the parent alone.

Sequence of canine TRPM8 (Q1A7N1 1-1104): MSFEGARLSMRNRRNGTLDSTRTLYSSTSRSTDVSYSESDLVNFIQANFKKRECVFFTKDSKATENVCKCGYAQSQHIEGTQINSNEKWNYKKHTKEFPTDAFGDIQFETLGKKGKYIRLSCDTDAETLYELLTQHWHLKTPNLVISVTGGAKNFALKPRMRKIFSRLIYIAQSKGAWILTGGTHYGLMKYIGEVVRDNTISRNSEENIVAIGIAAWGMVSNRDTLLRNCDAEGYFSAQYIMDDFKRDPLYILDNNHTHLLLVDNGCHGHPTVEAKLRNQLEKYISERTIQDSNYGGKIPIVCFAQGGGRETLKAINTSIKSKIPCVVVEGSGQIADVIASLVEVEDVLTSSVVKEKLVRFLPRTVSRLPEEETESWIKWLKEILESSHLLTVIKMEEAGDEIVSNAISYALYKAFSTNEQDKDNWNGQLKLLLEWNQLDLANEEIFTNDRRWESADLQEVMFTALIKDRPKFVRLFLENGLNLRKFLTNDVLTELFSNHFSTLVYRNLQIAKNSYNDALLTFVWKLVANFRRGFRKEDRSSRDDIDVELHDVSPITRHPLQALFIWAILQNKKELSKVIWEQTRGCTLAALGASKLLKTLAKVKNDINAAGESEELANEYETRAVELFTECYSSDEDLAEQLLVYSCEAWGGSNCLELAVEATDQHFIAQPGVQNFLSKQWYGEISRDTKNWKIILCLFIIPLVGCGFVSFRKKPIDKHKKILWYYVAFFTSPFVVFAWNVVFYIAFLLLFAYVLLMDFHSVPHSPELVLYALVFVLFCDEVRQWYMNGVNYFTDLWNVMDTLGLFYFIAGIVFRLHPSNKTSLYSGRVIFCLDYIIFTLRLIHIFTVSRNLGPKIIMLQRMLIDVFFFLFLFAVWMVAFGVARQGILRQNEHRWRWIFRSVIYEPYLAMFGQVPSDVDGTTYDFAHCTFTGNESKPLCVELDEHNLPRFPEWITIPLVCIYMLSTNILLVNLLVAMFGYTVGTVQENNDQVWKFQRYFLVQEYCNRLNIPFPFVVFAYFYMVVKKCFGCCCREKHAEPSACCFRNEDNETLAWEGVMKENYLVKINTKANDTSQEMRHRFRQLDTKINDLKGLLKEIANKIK

The term inhibition denotes the drop in the measured response relative to a control, in per cent. A high value points to strong suppression. The term IC50 denotes the midpoint of a concentration-inhibition curve. The low end stands for greater potency, the high end for weaker potency. In turn, `COc1nc(-c2ccccc2Cl)cc2nc(-c3cnn(C(C)(C)C)c3)[nH]c12` [Compound 102, 2-(1-tert-Butyl-1H-pyrazol-4-yl)-6-(2-chloro-phenyl)-4-methoxy-3H-imidazo[4,5-c]pyridine sodium salt] showed an inhibition at 0.2 µM of 70% and an IC50 of 120 nM.

Consider `CN(C)CCOc1nc(-c2ccccc2C(F)(F)F)cc2nc(-c3c(Cl)c(C(C)(C)C)nn3C)[nH]c12` [Compound 53, {2-[2-(5-tert-Butyl-4-chloro-2-methyl-2H-pyrazol-3-yl)-6-(2-trifluoromethyl-phenyl)-3H-imidazo[4,5-c]pyridin-4-yloxy]-ethyl}-dimethyl-amine], for which 0.2 µM produced 99% inhibition and the IC50 amounted to 27 nM.

As for `Cn1nc(C(C)(C)C)c(Cl)c1-c1nc2cc(-c3ccccc3C(F)(F)F)nc(OCC(F)(F)F)c2[nH]1` [Compound 19, 2-(5-tert-Butyl-4-chloro-2-methyl-2H-pyrazol-3-yl)-4-(2,2,2-trifluoroethoxy)-6-(2-trifluoromethyl-phenyl)-3H-imidazo[4,5-c]pyridine methanesulfonic acid salt], at 0.2 µM the inhibition was 100% and half-maximal inhibition (IC50) was put at 0.84 nM.

On to `COc1nc(-c2ccccc2C(F)(F)F)cc2nc(-c3c(F)c(C(C)(C)C)nn3C)[nH]c12` [Compound 78, 2-(5-tert-Butyl-4-fluoro-2-methyl-2H-pyrazol-3-yl)-4-methoxy-6-(2-trifluoromethyl-phenyl)-3H-imidazo[4,5-c]pyridine methanesulfonic acid salt], for which the inhibition at 0.2 µM came out at 100% and the midpoint of inhibition, the IC50, lay at 16 nM.

Regarding `Cn1nc(C(C)(C)C)c(Cl)c1-c1nc2cc(-c3ccccc3C(F)(F)F)nc(OCC(=O)O)c2[nH]1` [Compound 88, [2-(5-tert-Butyl-4-chloro-2-methyl-2H-pyrazol-3-yl)-6-(2-trifluoromethyl-phenyl)-3H-imidazo[4,5-c]pyridin-4-yloxy]-acetic acid], the inhibition at 0.2 µM was found to be 36%.

The compound `Cn1nc(C(C)(C)C)c(Cl)c1-c1nc2cc(-c3ccccc3F)nc(OCC(F)(F)F)c2[nH]1` [Compound 91, 2-(5-tert-Butyl-4-chloro-2-methyl-2H-pyrazol-3-yl)-6-(2-fluorophenyl)-4-(2,2,2-trifluoroethoxy)-3H-imidazo[4,5-c]pyridine sodium salt] showed an inhibition at 0.2 µM of 99% and an IC50 of 3.8 nM.

`Cn1nc(C(C)(C)C)c(Cl)c1-c1nc2nc(-c3ccccc3Cl)cnc2[nH]1` [Compound 110]: the “% Inh @ 0.2 μM” value amounted to 99% and half-maximal inhibition (IC50) was put at 24 nM.

In turn, `COc1cc(-c2ccccc2C(F)(F)F)nc2nc(-c3cc(C(C)(C)C)nn3C)[nH]c12` [Compound 81, 2-(5-tert-Butyl-2-methyl-2H-pyrazol-3-yl)-7-methoxy-5-(2-trifluoromethyl-phenyl)-1H-imidazo[4,5-b]pyridine hydrochloride] gave an inhibition at 0.2 µM of 67% and an IC50 of 120 nM.

For `Cn1nc(C(C)(C)C)cc1-c1nc2nc(-c3ccccc3C(F)(F)F)cc(Cl)c2[nH]1` [Compound 6, 2-(5-tert-butyl-2-methyl-2H-pyrazol-3-yl)-7-chloro-5-(2-trifluoromethyl-phenyl)-1H-imidazo[4,5-b]pyridine sodium salt], the inhibition at 0.2 µM worked out at 65% and half-maximal inhibition (IC50) was put at 69 nM.

In the case of `CC(C)Oc1nc(-c2ccccc2C(F)(F)F)cc2nc(-c3c(Cl)c(C(C)(C)C)nn3C)[nH]c12` [Compound 16, 2-(5-tert-Butyl-4-chloro-2-methyl-2H-pyrazol-3-yl)-4-isopropoxy-6-(2-trifluoromethyl-phenyl)-3H-imidazo[4,5-c]pyridine benzenesulfonic acid salt], the inhibition at 0.2 µM was determined as 99% and half-maximal inhibition (IC50) required 0.59 nM.

The compound `CC(C)Oc1nc(-c2ccccc2OC(F)(F)F)cc2nc(-c3c(Cl)c(C(C)(C)C)nn3C)[nH]c12` [Compound 93, 2-(5-tert-Butyl-4-chloro-2-methyl-2H-pyrazol-3-yl)-4-isopropoxy-6-(2-trifluoromethoxyphenyl)-3H-imidazo[4,5-c]pyridine sodium salt] gave an inhibition at 0.2 µM of 99% and an IC50 of 1.2 nM.

On to `Cn1nc(C(C)(C)C)c(C#N)c1-c1nc2cc(-c3ccccc3C(F)(F)F)nc(N3CCCCC3)c2[nH]1` [Compound 22, 3-tert-Butyl-1-methyl-5-[4-piperidin-1-yl-6-(2-trifluoromethyl-phenyl)-3H-imidazo[4,5-c]pyridine-2-yl]-1H-pyrazole-4-carbonitrile], for which testing at 0.2 µM gave an inhibition of 99% and the IC50 amounted to 1.4 nM.

Turning to `Cn1nc(C(C)(C)C)cc1-c1nc2cc(-c3ccccc3Cl)ncc2[nH]1` [Compound 41, 2-(5-tert-Butyl-2-methyl-2H-pyrazol-3-yl)-6-(2-chloro-phenyl)-3H-imidazo[4,5-c]pyridine hydrochloride], the inhibition at 0.2 µM amounted to 94% and the IC50 amounted to 51 nM.

As for `Cn1nc(C(C)(C)C)c(C#N)c1-c1nc2cc(-c3ccccc3C(F)(F)F)nc(OCC(=O)O)c2[nH]1` [Compound 86, [2-(5-tert-Butyl-4-cyano-2-methyl-2H-pyrazol-3-yl)-6-(2-trifluoromethyl-phenyl)-3H-imidazo[4,5-c]pyridin-4-yloxy]-acetic acid], at 0.2 µM the inhibition was 49%.

Compound `Cn1nc(C(C)(C)C)c(Cl)c1-c1nc2cc(-c3ccccc3Cl)nc(OCCN3CCOCC3)c2[nH]1` [Compound 54, 2-(5-tert-Butyl-4-chloro-2-methyl-2H-pyrazol-3-yl)-6-(2-chloro-phenyl)-4-(2-morpholin-4-yl-ethoxy)-3H-imidazo[4,5-c]pyridine] returned an inhibition at 0.2 µM of 99% and an IC50 of 4.2 nM.

The compound `Cn1nc(C(C)(C)C)c(C#N)c1-c1nc2cc(-c3ccccc3F)ncc2[nH]1` [Compound 44, 3-tert-Butyl-5-[6-(2-fluoro-phenyl)-3H-imidazo[4,5-c]pyridin-2-yl]-1-methyl-1H-pyrazole-4-carbonitrile hydrochloride] registered an inhibition at 0.2 µM of 98% and an IC50 of 37 nM.

On to `Cn1nc(C(C)(C)C)c(Cl)c1-c1nc2nc(-c3ccccc3C(F)(F)F)cnc2[nH]1` [Compound 95, 2-(5-tert-butyl-4-chloro-2-methyl-2H-pyrazol-3-yl)-6-(2-trifluoromethyl-phenyl)-1H-imidazo[4,5-b]pyrazine], for which the inhibition at 0.2 µM was 100% and the IC50 worked out at 27 nM.

`COCCOc1nc(-c2ccccc2C(F)(F)F)cc2nc(-c3c(Cl)c(C(C)(C)C)nn3C)[nH]c12` [Compound 20, 2-(5-tert-Butyl-4-chloro-2-methyl-2H-pyrazol-3-yl)-4-(2-methoxy-ethoxy)-6-(2-trifluoromethyl-phenyl)-3H-imidazo[4,5-c]pyridine benzenesulfonic acid salt] gave an inhibition at 0.2 µM of 99% and an IC50 of 0.95 nM.

With `CC(C)Oc1nc(-c2ccccc2C(F)(F)F)cc2nc(-c3c(C#N)c(C(C)(C)C)nn3C)[nH]c12` [Compound 14, 3-tert-Butyl-5-[4-isopropoxy-6-(2-trifluoromethyl-phenyl)-3H-imidazo[4,5-c]pyridin-2-yl]-1-methyl-1H-pyrazole-4-carbonitrile benzenesulfonic acid salt], the inhibition at 0.2 µM is 99% and the IC50 came to 1.2 nM.

`Cn1nc(C(C)(C)C)cc1-c1nc2nc(-c3ccccc3F)ccc2[nH]1` [Compound 36, 2-(5-tert-Butyl-2-methyl-2H-pyrazol-3-yl)-5-(2-fluoro-phenyl)-1H-imidazo[4,5-b]pyridine] came in with an inhibition at 0.2 µM of 26%.

As to `CC(C)Oc1nc(-c2ccccc2F)cc2nc(-c3c(Cl)c(C(C)(C)C)nn3C)[nH]c12` [Compound 92, 2-(5-tert-Butyl-4-chloro-2-methyl-2H-pyrazol-3-yl)-6-(2-fluorophenyl)-4-isopropoxy-3H-imidazo[4,5-c]pyridine sodium salt], the inhibition at 0.2 µM was determined as 99% and it took 2.8 nM to reach half-maximal inhibition (IC50).

In the case of `Cn1nc(C(C)(C)C)cc1-c1nc2nc(-c3ccccc3Cl)ccc2[nH]1` [Compound 27, 2-(5-tert-Butyl-2-methyl-2H-pyrazol-3-yl)-5-(2-chloro-phenyl)-1H-imidazo[4,5-b]pyridine], at 0.2 µM the inhibition was 73% and half-maximal inhibition (IC50) was put at 124 nM.

On to `Cl.Cn1nc(C(C)(C)C)c(Cl)c1-c1nc2cc(-c3ccccc3F)ncc2[nH]1` [Compound 48, 2-(5-tert-Butyl-4-chloro-2-methyl-2H-pyrazol-3-yl)-6-(2-fluoro-phenyl)-3H-imidazo[4,5-c]pyridine hydrochloride], for which the “% Inh @ 0.2 μM” value (hydrochloride) was 59%.

`Cn1nc(C(C)(C)C)c(C#N)c1-c1nc2cc(-c3ccccc3Cl)nc(OCC(=O)O)c2[nH]1` [Compound 85, [2-(5-tert-Butyl-4-cyano-2-methyl-2H-pyrazol-3-yl)-6-(2-chloro-phenyl)-3H-imidazo[4,5-c]pyridin-4-yloxy]-acetic acid]: the inhibition at 0.2 µM came out at 32%.
